According to article PMC2864911, “Effect of Common Buffers and Heterocyclic Ligands on the Binding of Cu(II) at the Multimetal Binding Site in Human Serum Albumin” (Bioinorganic Chemistry and Applications, 2010):

Tests used:
[1] = target: T1, Multimetal Binding Site (MBS) of Human Serum Albumin (HSA) (Homo sapiens, UniProt P02768); assay: Visible-range CD titration of Cu(II) binding at MBS of HSA; details: for log K app (apparent binding constant of the Cu(II)-MBS complex): 100 mM ligand solution, pH 7.4, 25°C, HSA 0.3–0.5 mM, binary species only assumed; for CI (competitivity index): Cu(II) and Z = 1 μM, HSA = 0.5 mM; for CI (competitivity index) / log K e (MBS + Cu(L) = Cu(MBS)(L)) / log K T (Cu(MBS) + Cu(L) = Cu(MBS)(L) + Cu^2+): pH 7.4; for log K 111 (Cu^2+ + L + MBS = Cu(MBS)(L)): pH 7.4, conditional constant, ternary complex model; for log K e (MBS + Cu(L) = Cu(MBS)(L)): log K 111 = log K 11 + log K e; for log K T (Cu(MBS) + Cu(L) = Cu(MBS)(L) + Cu^2+): log K T = log K 111 − log K 11 − log K app (NaCl)
T1 construct: purchased Sigma
Protocol: The CD spectra were recorded at 25°C on a Jasco J-715 spectropolarimeter (JASCO, Japan Spectroscopic Co., Hiroshima, Japan), over the range of 300–800 nm, using a 1 cm cuvette. The spectra are expressed in terms of Δε = ε l − ε r, where ε l and ε r are molar absorption coefficients for left and right circularly polarized light, respectively. In buffer experiments the solutions contained 100 mM Hepes, Tris, Sodium Phosphate, or NaCl, at pH 7.4.
HSA was dissolved at 0.3–0.5 mM in either a 100 mM Hepes, Tris, Sodium Phosphate buffers, pH 7.4, or in an unbuffered 100 mM NaCl solution. The pH of both types of samples was controlled to remain in the 7.38–7.42 corridor and adjusted with submicroliter amounts of concentrated HCl or NaOH when necessary. Concentrations of stock solutions of HSA were estimated spectrophotometrically at 279 nm and by Cu(II) titrations. The fractional abundance of NTS in HSA was measured by careful CD titrations using calibrated Cu(II) solutions.
We chose sodium phosphate, Tris and Hepes as the most common substances used for buffering protein solutions at pH 7.4. Their effect on Cu(II) binding to HSA was studied at a 0.1 M concentration stage versus unbuffered 0.1 M NaCl, used as a control solution. The choice of the latter was dictated by the presence of 0.1 M chloride in the blood serum. The pH of the NaCl samples was controlled by additions of small quantities of concentrated HCl or NaOH solutions, when necessary. […] The titrations were monitored by CD spectroscopy, analogously to our previous studies.
A typical titration is presented on Figure 1.
Apparent binding constants (K app) for Cu(II)-MBS complexes in the presence of buffers were obtained from titrations presented in Figure 2. Table 1 contains also further constants, calculated relative to the Cu(II)-MBS interaction in NaCl, taken as corresponding to a 100% binary complex formation.
First, the effects of competition of buffers for Cu(II) were accounted for Literature protonation and Cu(II) binding constants of Hepes, Tris, and phosphate ions were used in these calculations. […] The reactions defining these constants are provided in the footnotes of Table 1.
Briefly, K 111 describes the overall formation of a ternary species, K 11 is the literature binding constant of the Cu(II) complex of a buffer, K e corresponds to the ternary complex formation by addition of buffer-complexed Cu(II) to MBS, and K T is the equilibrium constant of the formation of the ternary complex in the reaction of two binary complexes, thus featuring the tendency of binary components to form a ternary species. All these constants, except for K 11, are conditional in respect to the pH value of 7.4.

[2] = literature values ref 30–32; cited from earlier work
HSA = details: cited from earlier work

T1 sequence (P02768 25-609): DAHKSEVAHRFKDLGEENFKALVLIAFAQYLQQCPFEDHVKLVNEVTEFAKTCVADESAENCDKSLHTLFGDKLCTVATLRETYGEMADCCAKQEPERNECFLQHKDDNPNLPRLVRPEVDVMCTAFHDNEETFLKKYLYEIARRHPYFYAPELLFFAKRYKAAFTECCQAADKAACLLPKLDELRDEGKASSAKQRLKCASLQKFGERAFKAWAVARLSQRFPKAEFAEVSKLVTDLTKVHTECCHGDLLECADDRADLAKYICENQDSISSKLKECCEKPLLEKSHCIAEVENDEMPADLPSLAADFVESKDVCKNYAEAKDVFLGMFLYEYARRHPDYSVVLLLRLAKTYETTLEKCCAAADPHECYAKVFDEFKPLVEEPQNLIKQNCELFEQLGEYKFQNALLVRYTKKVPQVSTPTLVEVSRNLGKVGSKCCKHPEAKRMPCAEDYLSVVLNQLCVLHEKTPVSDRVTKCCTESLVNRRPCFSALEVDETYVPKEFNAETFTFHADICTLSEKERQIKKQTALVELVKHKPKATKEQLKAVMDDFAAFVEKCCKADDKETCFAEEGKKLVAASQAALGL

Compound	log K app (apparent binding constant of the Cu(II)-MBS complex) [1]	CI (competitivity index) ([1]; [L] = 0.5 mM)	CI (competitivity index) ([1]; [L] = 100 mM)	log K 111 (Cu^2+ + L + MBS = Cu(MBS)(L)) [1]	log K e (MBS + Cu(L) = Cu(MBS)(L)) [1]	log K T (Cu(MBS) + Cu(L) = Cu(MBS)(L) + Cu^2+) [1]	log K 11 (Cu^2+ + L = Cu(L)) [2]	HSA binding constant (HSA) [M⁻¹]
O=S(=O)(O)CCN1CCN(CCO)CC1 [Hepes, N-2-hydroxyethylpiperazine-N′-2-ethanesulfonic acid]	4.45(5)	7.71	9.27	7.54(5)	4.32	−0.28	3.22	
[Cl-].[Na+] [NaCl]	4.60(3)	7.62	7.62					
O=P(O)(O)O [Phosphate, sodium phosphate]	5.17(7)	8.04	10.13	8.2(1)	5.00	+0.40	3.20	
NC(CO)(CO)CO [Tris, 2-amino-2(hydroxymethyl)-1,3-propanediol]	4.23(6)	7.74	9.42	8.22(5)	4.17	−0.43	4.05	
CC(=O)CC(c1ccccc1)c1c(O)c2ccccc2oc1=O (stereo not shown) [War, warfarin]								330000
